In patent US8198330B2, “Therapeutic or prophylactic agent for diabetes, obesity, dyslipidemia or metabolic syndrome comprising benzylamine derivative or pharmaceutically acceptable acid addition salt thereof” (Toray Industries, Inc., priority 2008, dated 2012):

How the values were obtained:
DIO mice [1] = test: Insulin tolerance test (ITT) in DIO mice; type: in vivo, mouse; conditions: day 27, insulin 0.3 unit/kg i.p., FIG. 1
Experimental: (§1) The blood was collected (approximately 70 μL) from the same site by using a heparin-treated capillary (Hematokrit Kapilaren, 75 μL, […] LABORGERATE) and the collected blood was centrifuged (12,000 rpm, 7 min, 4° C.) in a hematocrit centrifuge (KUBOTA3100, Kubota Corp.) and the plasma was stored, as it is frozen in an Eppendorf tube, until it is used for measurement of triglyceride. The triglyceride measurement was carried out by using Triglyceride E-Test Wako (Wako Pure Chemical Industries). Four μL of the sample was added to 250 μL of the coloring liquid, after reaction at 37° C. for 1 hour, and the absorbance (595 nm) of the mixture was determined by using a microplate reader (Bio-Rad, Model 680). Separately, insulin tolerance test (ITT) was performed on day 27.
The mouse was left non-feeded in a fasting cage after drug administration on day 26. In the morning of the day of ITT (day 27), the fasting blood sugar was determined by a method identical with that used for blood sugar measurement on day 26. The blood sugar was measured once again in the afternoon of the same day; an insulin solution was administered intraperitoneally (0.3 unit/5 mL/kg) immediately after then; and the blood sugar was measured 30, 60, 120 and 180 minutes after insulin administration since then. […]
The insulin level was measured by using an insulin measurement kit (Lebis Insulin Mouse U, Shibayagi). […]

KK/Ay mice = test: Efficacy in Type 2 diabetes-model mice (KK/Ay mice); type: in vivo, mouse
Experimental: KK/Ay male mice of 5 weeks of age (CLEA Japan, Inc.) were purchased; a feeding stuff for growth CMF (Oriental Yeast) was provided since the day of arrival; and mice after growth for 3 weeks or longer were used. The compound of Example 1 was diluted to 2 mg/mL, as it is dissolved in physiological saline, and the solution was administered subcutaneously in an amount of 5 mL/kg, by using a disposable syringe (Terumo) and a 26G injection needle (Terumo). Physiological saline was administered to the mice in the vehicle group. The solution was administered once a day from the day of first administration (day 0) to day 13, and the tail vein was cut open with a knife (disposable scalpel, FEATHER) and the blood sugar was determined with a simplified blood sugar analyzer (MediSense Precision Xceed, Abotto Japan). Statistical treatment of the individual data obtained was carried out by a two-group test (unpaired t-test).

DIO mice [2] = test: Efficacy in diabetes/obesity-model mice (DIO mice): blood sugar, body weight, fat, triglyceride; type: in vivo, mouse; conditions: for Weight of the fat around the mouse testicles / Blood sugar / Increase in body weight / Triglyceride: DIO mouse; for Weight of the fat around the mouse testicles: after ITT (day 27); for Blood sugar / Increase in body weight / Triglyceride: day 26; for Triglyceride: plasma
Experimental: C57BL/6J mice grown on a solid feeding stuff containing 60% fat (D12492, Research Diets) since 4 weeks of age, (male, Charles River Laboratories, Japan, 13 weeks of age) were purchased and mice of 16 weeks of age grown on D12492 since the day of arrival were used. C57BL/6J mice of 16 weeks of age grown on normal food since the day of arrival were used in the normal group. The compound of Example 1 was diluted to 2 mg/mL or 0.6 mg/mL, as it is dissolved in physiological saline, and the solution was administered subcutaneously in an amount of 5 mL/kg, by using a disposable syringe (Terumo) and a 26G injection needle (Terumo). Physiological saline was administered in the vehicle group. The solution was administered once a day from the day of first administration (day 0) to day 26. The body weight was determined on day 26; the tail vein was cut open with a knife (disposable scalpel, FEATHER); and the blood sugar was determined with a simplified blood sugar analyzer (MediSense Precision Xceed, Abotto Japan).
as §1
The insulin level was measured by using an insulin measurement kit (Lebis Insulin Mouse U, Shibayagi). Finally, HOMA-IR was also calculated from the values of fasting blood sugar and fasting insulin. The weight of the fat around the mouse testicles was also determined after measurement of ITT. Statistical treatment of the individual data obtained was carried out by a two-group test (unpaired t-test) or a multiplex comparison test (parametric Williams test).

conscious rat = test: Effect on the cardiovascular system (heart rate) of conscious rat; type: in vivo; conditions: conscious SD rat, s.c. 1, 3 and 10 mg/kg at 30 minute intervals, FIG. 2
Experimental: SD male rats of 7 weeks of age (Charles River Laboratories Japan Inc.) were purchased and used when they are 8 weeks of age. The rats were anesthetized by intraperitoneal administration of pentobarbital at 60 mg/kg; the back central region and the femoral region were cut open; a polyethylene tube (SP-31, Natsume Seisakusho Co., Ltd.) connected to a polyurethane tube (BC-3.5P, American Access Technologies) was inserted from the back to the femoral region, to place the polyethylene tube in femoral artery. After the femoral region was sutured, a flexible stainless steel pipe containing the polyethylene tube was sutured and fixed to the back skin. Heparin at 100 IU to 200 IU/mL was filled into the polyethylene tube and the polyurethane tube for prevention of blood clotting. After surgical operation, the rats were placed and grown back in 5-compartment wire mesh cage. […]
The heart rate of the rats was determined, by sending the pulse wave obtained in the blood pressure amplifier (AP-641G, Nihon Kohden Corp.) attached to the Life Kit for monitoring blood pressure to an instantaneous heart rate meter unit (AT-601T, Nihon Kohden Corp.). The heart rate was recorded on the chart paper in a thermal multirecorder (RIA-1300A, Nihon Kohden Corp.) by using a polygraph (RM-6000, Nihon Kohden Corp.). […]

`COc1cc(CN[C@@H](C)[C@H](O)c2ccc(O)c(NS(C)(=O)=O)c2)cc(OC)c1` [Example 1, N-(5-((1R,2S)-2-(3,5-Dimethoxybenzylamino)-1-hydroxypropyl)-2-hydroxyphenyl)methanesulfonamide] was tested, and the “blood sugar after insulin administration (ITT) versus vehicle group” value (DIO mice [1]) was “declined statistically significantly”, the “blood sugar versus solvent group” value (KK/Ay mice) was “lowered the blood sugar statistically significantly” and the Blood sugar (KK/Ay mice; 10 mg/kg s.c. once a day, day 0 to day 13) was 336 ± 33 mg/dL. For the same compound, the blood sugar-reducing effect (DIO mice [2]; DIO mice) was “significant blood sugar-reducing effect”, the “increase in body weight versus vehicle group” value (DIO mice [2]; DIO mice) was “Significant suppression of increase in body weight” and the “plasma triglyceride (TG) versus vehicle group” value (DIO mice [2]; DIO mice) was “declined statistically significantly”. For the same compound, the “weight of the fat around the mouse testicles versus vehicle group” value (DIO mice [2]; DIO mice) was “declined significantly”, the “Weight of the fat around the mouse testicles” value (DIO mice [2]; 3 mg/kg s.c. once a day) was 2.6 ± 0.1 g and the Blood sugar (DIO mice [2]; 3 mg/kg s.c. once a day) was 177 ± 9 mg/dL. The “Increase in body weight” value (DIO mice [2]; 3 mg/kg s.c. once a day) was 3.5 ± 0.6 g, the “Weight of the fat around the mouse testicles” value (DIO mice [2]; 10 mg/kg s.c. once a day) was 2.3 ± 0.1 g and the Blood sugar (DIO mice [2]; 10 mg/kg s.c. once a day) was 168 ± 8 mg/dL. The “Increase in body weight” value (DIO mice [2]; 10 mg/kg s.c. once a day) was 2.1 ± 0.5 g, the Triglyceride (DIO mice [2]; 3 mg/kg s.c. once a day) was 162 ± 14 mg/dL and the Triglyceride (DIO mice [2]; 10 mg/kg s.c. once a day) was 129 ± 9 mg/dL. For the same compound, the “influence on heart rate” value (conscious rat) was “did not have any influence on rat heart rate”.
